Assay results: patent US10765114B2, “4-amino-6-(pyridyl and 2-substitutedphenyl)-picolinates and 6-amino-2-(pyridyl and 2-substitutedphenyl)-pyrimidine-4-carboxylates and their use as herbicides” (Dow AgroSciences LLC, priority 2013, dated 2020)

What was measured:
[1] = tested on: LAMPU (purple deadnettle); assay: Post-Emergent Test III (Wheat and Barley); assay type: in vivo, Lamium purpureum; settings: for Visual Growth Reduction (%) 21 Days After Application, LAMPU: LAMPU purple deadnettle (Lamium purpureum), post-emergent
Experimental: (§1) Seeds of the desired test plant species were planted in Sun Gro MetroMix® 306 planting mixture, which typically has a pH of 6.0 to 6.8 and an organic matter content of about 30 percent, in plastic pots with a surface area of 103.2 square centimeters (cm^2). When required to ensure good germination and healthy plants, a fungicide treatment and/or other chemical or physical treatment was applied. The plants were grown for 7-36 days in a greenhouse with an approximate 14 h photoperiod which was maintained at about 18° C. during the day and 17° C. during the night. Nutrients and water were added on a regular basis and supplemental lighting was provided with overhead metal halide 1000-Watt lamps as necessary. The plants were employed for testing when they reached the second or third true leaf stage.
(§2) A weighed amount, determined by the highest rate to be tested, of each test compound was placed in a 25 mL glass vial and was dissolved in 4 mL of a 97:3 v/v mixture of acetone and DMSO to obtain concentrated stock solutions. […] The concentrated stock solutions obtained were diluted with 20 mL of an aqueous mixture containing acetone, water, isopropyl alcohol, DMSO, Agri-Dex crop oil concentrate, and X-77 surfactant in a 48:39:10:1.5:1.5:0.02 v/v ratio to obtain spray solutions containing the highest application rates. Additional application rates were obtained by serial dilution of 12 mL of the high rate solution into a solution containing 2 mL of 97:3 v/v mixture of acetone and DMSO and 10 mL of an aqueous mixture containing acetone, water, isopropyl alcohol, DMSO, Agri-Dex crop oil concentrate, and X-77 surfactant in a 48:39:10:1.5:1.5:0.02 v/v ratio to obtain ½×, ¼×, ⅛× and 1/16× rates of the high rate. Compound requirements are based upon a 12 mL application volume at a rate of 187 liters per hectare (L/ha). Formulated compounds were applied to the plant material with an overhead Mandel track sprayer equipped with 8002E nozzles calibrated to deliver 187 L/ha over an application area of 0.503 square meters at a spray height of 18 inches (43 cm) above the average plant canopy height. Control plants were sprayed in the same manner with the solvent blank.
(§3) The treated plants and control plants were placed in a greenhouse as described above and watered by subirrigation to prevent wash-off of the test compounds. After 21 dAYS, the condition of the test plants as compared with that of the untreated plants was determined visually and scored on a scale of 0 to 100 percent where 0 corresponds to no injury and 100 corresponds to complete kill and presented as indicated in Table A.
(§4) By applying the well-accepted probit analysis as described by J. Berkson in Journal of the American Statistical Society, 48, 565 (1953) and by D. Finney in “Probit Analysis” Cambridge University Press (1952), herbicidal injury of a specific compound at various rates can be used to calculate GR10, GR20, GR50, GR80 and GR90 values, which are defined as growth reduction factors that correspond to the effective dose of herbicide required to provide plant growth reduction (GR) of 10 percent, 20 percent, 50 percent, 80 percent and 90 percent, respectively. Probit analysis was applied to data collected from multiple dose rates of individual compounds utilizing the procedures explained in the following examples. The analysis of those dose rates is captured in the following tables.

[2] = tested on: SASKR (Russian thistle); assay: Post-Emergent Test III (Wheat and Barley); assay type: in vivo, Salsola tragus; settings: for Visual Growth Reduction (%) 21 Days After Application, SASKR: SASKR Russian thistle (Salsola iberica), post-emergent
Experimental: as §1, §2, §3, §4

[3] = tested on: test plant species in Wheat and Barley; assay: Post-Emergent Test III (Wheat and Barley), further species of Table 9; assay type: in vivo; settings: for Visual Growth Reduction (%) 21 Days After Application, CHEAL: CHEAL lambsquarters (Chenopodium album); for Visual Growth Reduction (%) 21 Days After Application, CHEAL / Visual Growth Reduction (%) 21 Days After Application, GALAP / Visual Growth Reduction (%) 21 Days After Application, STEME / Visual Growth Reduction (%) 21 Days After Application, VIOTR: post-emergent; for Visual Growth Reduction (%) 21 Days After Application, GALAP: GALAP cleavers (Galium aparine); for Visual Growth Reduction (%) 21 Days After Application, STEME: STEME common chickweed (Stellaria media); for Visual Growth Reduction (%) 21 Days After Application, VIOTR: VIOTR wild pansy (Viola tricolor)
Experimental: as §1, §2, §3, §4

SMILES: Nc1cc(-c2ccc(Cl)c(Cl)c2Cl)nc(C(=O)O)c1Cl [Compound 93]
- Visual Growth Reduction (%) 21 Days After Application, LAMPU ([1]; 17.5 g ai/ha): A (95-100)
- Visual Growth Reduction (%) 21 Days After Application, LAMPU ([1]; 35 g ai/ha): A (95-100)
- Visual Growth Reduction (%) 21 Days After Application, LAMPU ([1]; 70 g ai/ha): A (95-100)
- GR50, LAMPU ([1]; LAMPU, growth reduction of 50%, probit analysis, 21 days): 1 g ai/ha
- GR80, LAMPU ([1]; LAMPU, growth reduction of 80%, probit analysis, 21 days): 2 g ai/ha
- GR90, LAMPU ([1]; LAMPU, growth reduction of 90%, probit analysis, 21 days): 8 g ai/ha
- Visual Growth Reduction (%) 21 Days After Application, SASKR ([2]; 17.5 g ai/ha): B (85-94)
- Visual Growth Reduction (%) 21 Days After Application, SASKR ([2]; 35 g ai/ha): B (85-94)
- Visual Growth Reduction (%) 21 Days After Application, SASKR ([2]; 70 g ai/ha): B (85-94)
- GR50, SASKR ([2]; SASKR, growth reduction of 50%, probit analysis, 21 days): 1 g ai/ha
- GR80, SASKR ([2]; SASKR, growth reduction of 80%, probit analysis, 21 days): 10 g ai/ha
- GR90, SASKR ([2]; SASKR, growth reduction of 90%, probit analysis, 21 days): 34 g ai/ha
- Visual Growth Reduction (%) 21 Days After Application, CHEAL ([3]; 17.5 g ai/ha): C (75-84)
- Visual Growth Reduction (%) 21 Days After Application, CHEAL ([3]; 35 g ai/ha): B (85-94)
- Visual Growth Reduction (%) 21 Days After Application, CHEAL ([3]; 70 g ai/ha): B (85-94)
- GR50, CHEAL ([3]; CHEAL, growth reduction of 50%, probit analysis, 21 days): 1 g ai/ha
- GR80, CHEAL ([3]; CHEAL, growth reduction of 80%, probit analysis, 21 days): 16 g ai/ha
- GR90, CHEAL ([3]; CHEAL, growth reduction of 90%, probit analysis, 21 days): 80 g ai/ha
- Visual Growth Reduction (%) 21 Days After Application, GALAP ([3]; 17.5 g ai/ha): D (60-74)
- Visual Growth Reduction (%) 21 Days After Application, GALAP ([3]; 35 g ai/ha): C (75-84)
- Visual Growth Reduction (%) 21 Days After Application, GALAP ([3]; 70 g ai/ha): C (75-84)
- GR50, GALAP ([3]; GALAP, growth reduction of 50%, probit analysis, 21 days): 1 g ai/ha
- GR80, GALAP ([3]; GALAP, growth reduction of 80%, probit analysis, 21 days): 88 g ai/ha
- GR90, GALAP ([3]; GALAP, growth reduction of 90%, probit analysis, 21 days): >140 g ai/ha
- Visual Growth Reduction (%) 21 Days After Application, STEME ([3]; 17.5 g ai/ha): E (45-59)
- Visual Growth Reduction (%) 21 Days After Application, STEME ([3]; 35 g ai/ha): D (60-74)
- Visual Growth Reduction (%) 21 Days After Application, STEME ([3]; 70 g ai/ha): D (60-74)
- GR50, STEME ([3]; STEME, growth reduction of 50%, probit analysis, 21 days): 11 g ai/ha
- GR80, STEME ([3]; STEME, growth reduction of 80%, probit analysis, 21 days): >140 g ai/ha
- GR90, STEME ([3]; STEME, growth reduction of 90%, probit analysis, 21 days): >140 g ai/ha
- Visual Growth Reduction (%) 21 Days After Application, VIOTR ([3]; 17.5 g ai/ha): E (45-59)
- Visual Growth Reduction (%) 21 Days After Application, VIOTR ([3]; 35 g ai/ha): E (45-59)
- Visual Growth Reduction (%) 21 Days After Application, VIOTR ([3]; 70 g ai/ha): E (45-59)
- GR50, VIOTR ([3]; VIOTR, growth reduction of 50%, probit analysis, 21 days): 41 g ai/ha
- GR80, VIOTR ([3]; VIOTR, growth reduction of 80%, probit analysis, 21 days): >140 g ai/ha
- GR90, VIOTR ([3]; VIOTR, growth reduction of 90%, probit analysis, 21 days): >140 g ai/ha
